Reference: patent US6676941B2 (Board of Regents, The University of Texas System, priority 1999, dated 2004)

What was measured:
VEGFR1 (Flt-1/Fc) = test: Co-precipitation assay, VEGF binding to VEGFR1/Fc in solution; conditions: 40 ng VEGF, 200 ng receptor/Fc; 2C3 F(ab′)2 20 μg, A4.6.1 F(ab′)2 10 and 1 μg
Protocol: (§1) 200 ng of soluble forms of VEGFR1 (Flt-1/Fc) or VEGFR2 (KDR/Fc, R&D Systems, Minneapolis, Minn.) were added for a total volume of 50 μl and incubated for 2 hrs. The receptor/Fc constructs were precipitated using Protein A-sepharose beads and the resulting precipitate was washed 4 times with binding buffer.
(§2) Reducing sample buffer was added to the pellet and supernatant of each reaction and both were analyzed by 12% SDS-PAGE and transferred to PVDF membranes. […] The soluble receptor/Fc constructs were also detected by using peroxidase-conjugated goat anti-human Fc (Kirkegaard & Perry Laboratories, Inc.)
(§3) The receptor/Fc constructs were precipitated by incubation with Protein A sepharose beads. The precipitate was washed and resuspended in reducing sample buffer and separated by 12% SDS-PAGE and transferred to PVDF.

VEGFR2 (KDR/Fc) = test: Co-precipitation assay, VEGF binding to VEGFR2/Fc in solution; conditions: 40 ng VEGF, 200 ng receptor/Fc; 2C3 F(ab′)2 20 μg, A4.6.1 F(ab′)2 10 and 1 μg
Protocol: as §1, §2, §3

[1] = Enzymatic activity of the GUS portion of 2C3-GUS; assay type: biochemical
Excerpt: The 6-His GUS was pure based upon SDS-PAGE, where it ran as a single band of 75 kDa band. On gel filtration columns, the 6-His GUS runs as a tetramer of about 300 kDa.
The biological activity of each component of the 2C3-GUS conjugate was confirmed.

[2] = Blood clearance of radioiodinated 2C3-GUS after intravenous injection; assay type: in vivo; conditions: 125I-labelled, intravenous injection into mice
Excerpt: 2C3-GUS was radioiodinated with ^125I to a specific activity of 5×10^6 cpm/μg.

KDR = test: 125I-VEGF binding to KDR expressing endothelial cells (ABAE cells); parameters: species or system bovine
[3] = biological target: T1, denatured VEGF121 and VEGF165 (Homo sapiens, UniProt P15692); test: Western blot of VEGF under reducing and non-reducing conditions; assay type: binding
T1 sequence (P15692 27-191 isoform P15692-4): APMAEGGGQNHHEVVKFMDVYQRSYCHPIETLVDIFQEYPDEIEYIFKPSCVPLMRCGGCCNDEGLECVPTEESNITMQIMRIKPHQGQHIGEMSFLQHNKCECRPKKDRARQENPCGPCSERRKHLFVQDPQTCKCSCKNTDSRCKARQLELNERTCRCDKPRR
Protocol: The nitrocellulose membrane was blocked using Sea-Block PP82-41 (East Coast Biologics, Berwick, Me.), and probed with primary antibodies using a mini-blotter apparatus (Immunetics, Cambridge, Mass.). The membranes were developed after incubation with the appropriate peroxidase-conjugated secondary antibody by ECL enhanced chemiluminescence.
Western blot analyses of anti-VEGF antibodies were conducted by separating VEGF165 in the presence of 5% FCS using SDS-PAGE on a 12% gel and analyzing by a standard western blotting protocol using ECL detection. The primary antibodies were incubated with the nitrocellulose membrane using a multi-lane mini-blotter apparatus.

[4] = system: NCI-H358 human NSCLC and HT29 human colonic adenocarcinoma xenografts; test: In vivo localization in mice bearing human tumor xenografts (immunohistochemistry of tumor and organs)
Protocol: Tumors were grown subcutaneously in immunocompromised mice (NCI-H358 NSCLC in nu/nu mice and HT29 colon adenocarcinoma in SCID mice) until the tumor volume was approximately 1 cm^3. 100 μg of unlabeled antibody for studies using SCID mice, or 100 μg of biotinylated antibody for studies using nude mice, was injected intravenously via a tail vein. Twenty four hours later, the mice were anesthetized, perfused with PBS, and tumor and organs including heart, lungs, liver, kidneys, intestines and spleen were collected and snap frozen in liquid nitrogen.
The tumor and organs from each mouse were sectioned on a cryostat and stained for antibody immunohistochemically as above, with the exception that sections from the nude mice were developed using peroxidase labeled streptavidin-biotin complex (Dako, Carpinteria, Calif.) and the sections from the SCID mice were developed using two peroxidase-conjugated secondary antibodies, a goat anti-mouse IgG+IgM followed by a rabbit anti-goat IgG.
100 μg of GV39M and 3E7 or isotype-matched control IgG were injected into SCID mice bearing HT29 human colonic adenocarcinomas. Twenty-four hours later, the mice were sacrificed, exsanguinated and the tumors and tissues were removed.

NCI-H358 NSCLC tumors = test: Treatment of established NCI-H358 NSCLC xenografts; assay type: in vivo, nu/nu mice
Protocol: (§4) Male nu/nu mice bearing subcutaneous NCI-H358 tumors or HT1080 fibrosarcoma 200-400 mm^3 in size were injected i.p. with test or control antibodies. The NCI-H358 bearing mice were treated with 100 μg of antibodies per injection three times a week during the first week and twice a week during the second and third week. The mice were then switched to 50 μg per injection every five days. The HT1080 bearing mice were treated with 100 μg of the indicated antibody or saline every other day throughout the duration of the study. In both studies, mice were sacrificed when their tumors reached 2500 mm^3 in size or earlier if tumors began to ulcerate.
Doses were 50-100 μg every 3-5 days. […] In addition to measuring mean tumor volume (FIG. 4), photographs of the mice from each treatment group were also taken to show the differences in tumor size and appearance at the end of the study.

[5] = system: A673 rhabdomyosarcoma and LS174T colon adenocarcinoma tumors; test: Treatment of mice with established A673 and LS174T tumors; conditions: mouse, in vivo
[6] = biological target: T2, VEGF alone or VEGF associated with sFlk-1 (VEGF:Flk-1) (Homo sapiens, UniProt P15692); test: Indirect and capture ELISA for reactivity with VEGF alone or VEGF:Flk-1; assay type: binding
T2 sequence (P15692 27-191 isoform P15692-4): T1 sequence (P15692 27-191 isoform P15692-4)
Protocol: The Flk-1/SEAP protein was produced and purified as described by Tessler et al. (1994). Basically, the extracellular domain of Flk-1 (sFlk-1) was produced in Spodoptera frugiperda (Sf9) cells and purified by immunoaffinity techniques utilizing a monoclonal anti-Flk-1 antibody (1A8). sF1k-1 was then biotinylated and bound on avidin-coated plates.
The reactivity was determined as described above for the initial screening.
A capture ELISA was also developed. In the capture ELISA, microtiter plates were coated overnight at 4° C. with 100 ng of the indicated antibody. […] Streptavidin conjugated to peroxidase (Kirkegaard & Perry Laboratories, Inc.), diluted 1:2000, was used as a second layer and developed.

VEGFR2 (KDR/Flk-1) = test: ELISA: VEGF binding to VEGFR2-coated wells in presence of antibody; parameters: species or system mouse
HT1080 fibrosarcoma = test: Treatment of established HT1080 fibrosarcoma xenografts; assay type: in vivo, nu/nu mice; conditions: 100 μg i.p. every other day; tumors 200-250 mm^3 at start
Protocol: as §4

[7] = system: VEGF-mediated growth of ABAE cells; test: Endothelial cell growth assay (MTS), VEGF-mediated growth of ABAE cells; assay type: cell-based, bovine; conditions: Table 5 summary
Protocol: Adult bovine aortic endothelial (ABAE) cells were plated into 96-well tissue culture plates at 1500 cells/well and grown in the presence of 0.5 nM human VEGF with the addition of the various sample and control antibodies. Control wells received media with or without VEGF.
After 4 days of incubation, the cells were quantified by an MTS (3-(4,5-dimethylthiazol-2-yl)-5-(3-carboxylmethoxyphenyl)-2-(4-sulfophenyl)-2H-tetrazolium, inner salt) conversion assay, where MTS conversion to a formazan is proportional to cell number and can be followed by absorbance at 490 nm (Cell Titer 96 AQueous One Solution Cell Proliferation Assay, Promega, Madison, Wis.). The assay was performed according to the manufacturer's instructions.
Cell growth was estimated by subtracting the MTS conversion in cultures to which VEGF was not added. Results were expressed as a percentage of the MTS conversion in control cultures to which only VEGF was added (Buttke et al., 1993).

VEGFR2 = test: VEGF-induced phosphorylation of VEGFR2 in PAE/KDR cells (immunoprecipitation, western blot); assay type: cell-based; conditions: 15 min stimulation, antibodies at 100 nM (15 μg/ml)
Protocol: PAE/KDR, PAE/FLT, and bEND.3 cells were grown to 80-90% confluency in 100 mm tissue dishes in media containing 5% serun. The cells were then serum starved for 24 hours in media containing 0.1% serum. After pretreatment with […] sodium orthovanadate in PBS for 30 min, the cells were incubated with 5 nM (200 ng/ml) VEGF165, 5 nM (100 ng/ml) bFGF (R&D Systems, Minneapolis, Minn.), or A673 tumor conditioned media in the presence or absence of control or test antibodies for additional 15 min.
The cells were then washed with ice-cold PBS containing 10 mM EDTA, 2 mM sodium fluoride, and 2 mM sodium orthovanadate and lysed in lysis buffer (50 mM Tris, 150 mM NaCl, 1% Nonidet P-40, 0.25% sodium deoxycholate, 0.1% CHAPS, 5 mM EDTA, 1.5 mM MgCl2, 2 mM sodium fluoride, 2 mM sodium orthovanadate, 10% glycerol and protease inhibitors (Complete Protease Inhibitor Cocktail tablets, Boehringer Mannheim)). The lysates were clarified by centrifugation and resulting supernatant used for immunoprecipitation.
The reactions using the chicken anti-FLT-1 antibody were subsequently incubated with a bridging goat anti-chicken antibody (Kirkegaard and Perry Laboratories, Inc.) for 1 h at 4° C. […]

VEGFR1 (FLT-1) = test: ELISA: VEGF binding to VEGFR1-coated wells in presence of antibody
Protocol: The extracellular domain of VEGFR1 (Flt-1/Fc, R&D Systems, Minneapolis) or VEGFR2 (sFlk-1-biotin) was coated directly on wells of a microtiter plate or captured by NeutrAvidin (Pierce, Rockford, Ill.) coated wells, respectively. VEGF at a concentration of 1 nM (40 ng/ml) was incubated in the wells in the presence or absence of 100-1000 nM (15 μg-150 μg/ml) of control or test antibodies. The wells were then incubated with 1 μg/ml of rabbit anti-VEGF antibody (A-20, Santa Cruz Biotechnology, Santa Cruz, Calif.).
The reactions were developed by the addition of peroxidase-labeled goat anti-rabbit antibody (Dako, Carpinteria, Calif.) and visualized by addition of 3,3′5,5′-tetramethylbenzidine (TMB) substrate (Kirkegaard and Perry Laboratories, Inc.). Reactions were stopped after 15 min with 1 M H3PO4 and read spectrophotometrically at 450 nM.

[8] = system: cancer patients having progressive disease; conditions: clinical trials; cited from earlier work
[9] = 100 fold molar excess over VEGF

2C3 F(ab′)2: F(ab′)2 fragment of 2C3
Blocking of VEGF binding to VEGFR1/Fc in solution (VEGFR1 (Flt-1/Fc)): not to VEGFR1/Fc | Blocking of VEGF binding to VEGFR2/Fc in solution (VEGFR2 (KDR/Fc)): blocked the binding of VEGF to VEGFR2/Fc

2C3-GUS
Enzymatic activity of GUS portion [1]: retained enzymatic activity | t½ α [2]: about 6 hours | t½ β [2]: about 25 hours

2C3: anti-VEGF monoclonal antibody, IgG2a,k, raised to recombinant human VEGF; hybridoma ATCC PTA 1595; blocks VEGF binding to VEGFR2, not VEGFR1
Blocking of 125I-VEGF binding to KDR on ABAE cells (KDR): blocks VEGF from binding to KDR in a concentration dependent manner | Reactivity with VEGF on western blot [3]: react with denatured VEGF121 and VEGF165 | Tumor localization in the HT29 human tumor model ([4]; after i.v. injection): localized strongly to the connective tissue | Immunohistochemical Reactivity, Tumor ([4]; as E17, 3E7 and GV39M bound tumor vascular endothelium, 2C3 bound tumor stroma): 3+ | Mean tumor weight at the end of the study (day 116) (NCI-H358 NSCLC tumors; FIG. 5A, 100 μg i.p., initial treatment 500 μg i.v.): 0.054 g | Mean tumor volume after approximately 14 wk of treatment (NCI-H358 NSCLC tumors; FIG. 5A, 100 μg i.p., start 480 mm^3 (2C3), 428 mm^3 (3E7)): 84 mm^3 | Decrease in mean tumor volume (NCI-H358 NSCLC tumors; FIG. 5A, after approximately 14 wk): approximately 80% | Mean tumor volume at the end of the study, % of the initial mean tumor volume (NCI-H358 NSCLC tumors; tumors 300-450 mm^3 at start, 50-100 μg i.p. every 3-5 days, approximately 10 weeks): 30% | Effect on growth of established A673 and LS174T tumors [5]: significantly slowed the growth | Predominant Reactivity [6]: VEGF | Reduction in VEGF binding to VEGFR2 (VEGFR2 (KDR/Flk-1); [9]): about 74% | Amount VEGF bound to VEGFR2-coated wells, % of amount bound in the absence of antibody (VEGFR2 (KDR/Flk-1); 1000-fold molar excess of antibody over VEGF (1 nM VEGF)): ~19% | Reduction in VEGF binding to VEGFR2 (VEGFR2 (KDR/Flk-1); 1000 fold molar excess over VEGF): about 81% | Blocks VEGF from binding to VEGFR2 (VEGFR2 (KDR/Flk-1); Table 5 summary): Yes | Effect on growth of HT1080 tumors (HT1080 fibrosarcoma): arrested the growth of the tumors | Blocks VEGF-induced proliferation [7]: Yes | Blocking of VEGF-induced phosphorylation of VEGFR2 (VEGFR2): block VEGF-induced phosphorylation of VEGFR2 | Amount VEGF that bound to ELISA wells, maintained (VEGFR1 (FLT-1); [9]): about 92% | Blocks VEGF from binding to VEGFR1 (VEGFR1 (FLT-1); Table 5 summary): No

NC(=O)c1nnn(Cc2cc(Cl)c(C(=O)c3ccc(Cl)cc3)c(Cl)c2)c1N [CAI, carboxyamidotriazole]
Disease stabilization, share of cancer patients having progressive disease before treatment [8]: 49%
